Assay results reported in patent US9241928B2, “Antimicrobial compounds” (The General Hospital Corporation, priority 2009, dated 2016).
≈ marks a conversion by molar mass, not a printed value.

Columns and labels:
[1] = test system: E. faecalis MMH594; test: MIC assay, E. faecalis in vitro; assay type: cell-based; details: Enterococcus faecalis; E. faecalis MMH594 in 20% BHI, 80% M9, 37° C., 15 hours, scored by eye
Procedure: A culture of E. faecalis MMH594 was grown overnight in BHI broth to stationary phase at 37° C. with aeration. The culture was diluted to an approximate density of […] in worm infection media (20% BHI, 80% M9 buffer). 12.5 μl of the bacterial culture dilution was inoculated into 384-well plates containing 12.5 μl of 2-fold serial dilutions of a test compound. […] Plates were incubated at 37° C. for 15 hours and scored by eye for bacterial growth.

[2] = test system: C. elegans infected with E. faecalis; test: Dose response time courses in the C. elegans-E. faecalis infection assay; assay type: in vivo, Caenorhabditis elegans; details: Effective Concentration: survival significantly different from mock-treated, p-value <0.05, logrank; read-out: EC
Procedure: (§1) glp-4(bn2); sek-1 (km4) mutant worms were grown to gravid adult stage. 1,000 worms at the L1 stage were grown for 5.2 days at 15° C. on 9-cm plates of SK agar media spread with a lawn of E. coli strain HB101. Embryos from the gravid adults were isolated by a previously described hypochlorite method (see Tan et al., (1999) Proc. Natl. Acad. Sci. USA 96, 715-720) and hatched at 15° C. for 2 days. Approximately 4,500 of the Ll hatchlings were grown on each 9-cm plate of SK-NS agar (SK media with 62.5 U/ml nystatin and 100 μg/ml streptomycin) and with lawns of E. coli HB101. These worms were grown at 25° C. for 52 hours to generate sterile, young adults.
(§2) A culture of E. faecalis MMH594 was grown in BHI broth (BD Difco) with 80 μg/ml kanamycin at 37° C. for 6 hours and 100 μl of the culture were spread onto each 9-cm plate of BHI agar containing 80 μg/mlkanamycin. Lawns of E. faecalis were grown at 25° C. for 16 hours and transferred to 15° C. for 8 hours.
(§3) Sterile adult worms were resuspended in M9 buffer and washed twice with M9 in a 1:10 ratio to remove E. coli. 8,000 worms were pipetted onto each lawn of E. faecalis and incubated 15 hours at 15° C. After infection, the worms were resuspended in M9 and used as described below. 384-well plates (Corning #3712) were filled with 55 μl media (see below) using a Thermo Scientific MULTIDROP Combi reagent dispenser. 0.3 μl of a candidate compound in DSMO were pin transferred into each well using a CyBio CYBI-Well vario transfer system. The plates were agitated using an Eppendorf MIXMATE at 1,800 rpm for 15 seconds. Using the Union Biometrica Complex Object Parametric Analyzer and Sorter (COPAS) BIOSORT worm sorter according to manufacturer's protocols, 15 of the infected worms were transferred to each well in a total volume of approximately 15 μl. Total volume per well is 70 μl/well with a final composition of the media being 20% BHI, […], 80 μg/ml kanamycin, 62.5 U/ml nystatin, 1% DMSO, and 19% sheath solution (Union Biometrica Part #300-5101-000). Plates were vortexed for 5 seconds, centrifuged at 1000×g for 10 seconds, and sealed with gas permeable membranes (BREATHEASY Diversified). Plates were placed in a single layer on the top shelves in a 26.3° C. incubator at 85% relative humidity (RH) and incubated without agitation for 5 days.
The dose dependence of certain antimicrobial compounds identified by the assay above were studied. These compounds were purchased in a larger amount from commercial sources. For each of these compounds, an infection assay was performed essentially as described above at different concentrations except that SYTOX staining was not used. Instead, bright-field images of the wells were acquired at daily time points and scored manually for worm survival by analyzing worm body positioning. […] All compounds used in this assays were confirmed for their identity and purity by liquid chromatography/mass spectrometry.

[3] = test system: MRSA infection in Caenorhabditis elegans; test: MRSA infection assay in C. elegans (liquid); assay type: in vivo; details: 5 days
Excerpt: To screen/test candidate compounds for their efficacy against Methicillin-resistant Staphylococcus aureus (MRSA) using Caenorhabditis elegans (C. elegans), a liquid high throughput screening assay was developed. In contrast to the Enterococcus faecalis infection assay, where worms are pre-infected with E. faecalis on agar prior to the start of the screening assay and then infected worms are transferred to microtiter plates using the COPAS BioSort robot, the infection of worms with MRSA occurred directly in the liquid medium. This liquid infection protocol with MRSA was developed because the COPAS BioSort, the large particle sorter used to dispense worms into multiwell plates, is a pressurized system that can generate aerosols. Because MRSA is a potentially dangerous pathogen for immune competent individuals, sorting MRSA-infected worms in the COPAS BioSort was deemed to be potentially hazardous.
The MRSA infection assay was carried out by incubating C. elegans with three MRSA strains (i.e., USA100, USA400 and MW2) in 96 or 384-well microtiter plates and assessing whether worms were live or dead after a 5 day incubation.
The MRSA infection assay was performed as follows: Worms were grown on agar using non-pathogenic E. coli as a food source until they reached the L4/young adult stage. A small volume of M9 buffer was added to the agar plates to float worms gently off the food source. The worms were then transferred into a large conical tube and washed 2 times by allowing worms to settle, aspirating the supernatant and adding fresh M9 buffer. 15 worms were then transferred using a COPAS BioSort large particle sorter into a 96-well plate containing […] of M9. […] After the worms were stained for 18 hours, images of the plates were acquired in bright field and red fluorescence channels using a Molecular Devices Discovery-1 or ImageXpress automated microscopy system. The total number of worms was counted in the bright field image and the number of dead animals are determined by positive SYTOX staining. […]

[4] = test system: E. faecalis strain MMH594; test: Antimicrobial (bacterial killing) assay; assay type: cell-based, Enterococcus faecalis; details: mM concentrations, 1 to 30 minutes, room temperature
Procedure: Compounds 6, 7, 15 were purchased from TimTec and ChemDiv, dissolved in DMSO at a concentration of 5 or 10 mg/ml, and further diluted in DMSO as indicated. E. faecalis strain MMH594 was grown overnight with aeration at 37° C. in Bacto brain heart infusion (BHI) broth (Becton Dickinson), transferred to ice, and washed in phosphate-buffered saline (PBS; pH 7.2). Equal volumes of a dissolved compound and bacteria were mixed, incubated at room temperature for 1 to 30 minutes, ten-fold serially diluted in PBS, and plated in […] droplets on BHI agar plates. Plates were incubated at room temperature until colonies were visible.

[5] = test system: C. elegans infected with E. faecalis; test: Automated infection assay for primary compound screening (SYTOX staining, CELLPROFILER); assay type: in vivo, Caenorhabditis elegans
Procedure: In general, the area of each well that is SYTOX-positive in the fluorescence image is measured and normalized by the total area occupied by all worms, which is quantified in the bright field image. This typically requires illumination correction to flatten lighting abnormalities, adaptive thresholding, and size- and contrast-based filters and masks to exclude debris and other artifacts. By calculating the ratio of the fluorescent area (which corresponds to the area occupied by dead worms) to the total area occupied by all worms, one can accurately determine the number of dead worms in each well. […] In a well where the worms are rescued by ampicillin treatment, 3 of the 14 worms were dead based on manual scoring. The ratio of the fluorescent area to the area occupied by all worms obtained by the CELLPROFILER analysis is correspondingly low at 0.12.
as §1, §2, §3
After 5 days, the bacteria and liquid media in the assay plates were removed as described below. First, the bacteria were re-suspended by shaking on the MIXMATE for 15 seconds at 1,800 rpm, the sealing membrane was removed, and the worms were allowed to settle to the bottom of the wells for 3 minutes. […]

| SMILES | MIC [1] | minimal effective concentration [2] | bactericidal activity (FIGS. 7A and 7B) [4] | further results |
| --- | --- | --- | --- | --- |
| CSc1ccc(-c2cccs2)nn1 [Compound 8] | > 100 µg/mL | 3.13 µg/mL |  |  |
| Oc1c(C(Nc2ccccn2)c2cccc(F)c2)cc(Cl)c2cccnc12 (stereo not shown) [Compound 2] | 25 µg/mL (≈ 65.8 µM) | 1.56 µg/mL |  |  |
| Oc1c(C(Nc2ccccn2)c2ccccn2)cc(Cl)c2cccnc12 (stereo not shown) [Compound 3] | 12.5 µg/mL (≈ 34.5 µM) | 3.13 µg/mL |  | survival of MRSA-infected worms (FIG. 4) ([3]; 6.25 and 12.5 μg/ml): resulted in survival of MRSA-infected worms |
| Oc1c(C(Nc2ccccn2)c2ccccc2F)cc(Cl)c2cccnc12 (stereo not shown) [Compound 1] | 12.5 µg/mL (≈ 32.9 µM) | 0.78 µg/mL |  |  |
| CC(=O)O [acetic acid, reference compound] |  |  | did not show any bactericidal activity |  |
| CC1(C)S[C@@H]2[C@H](NC(=O)[C@H](N)c3ccccc3)C(=O)N2[C@H]1C(=O)O [ampicillin] |  |  |  | z-score, screen average ([5]; ampicillin-treated wells, 21 μg/ml): −8.70; dead worms based on manual scoring ([5]; of 14 worms in the well, ampicillin treatment): 3; ratio of the fluorescent area to the area occupied by all worms (CELLPROFILER) ([5]; well where worms are rescued by ampicillin treatment): 0.12 |
| O=C(CCSCc1ccc(Cl)cc1)N1CCN(c2ccccc2)CC1 [Compound 7] | > 100 µg/mL | 25 µg/mL | did not show any bactericidal activity |  |
| Cc1c(O)ccc(/C=N/Nc2nc(-c3ccc(Br)cc3)nc3ccccc23)c1O [Compound 9] | > 100 µg/mL | 3.13 µg/mL |  | survival of MRSA-infected worms (FIG. 4) ([3]; 25 and 50 μg/ml): resulted in survival of MRSA-infected worms |
| CC(C)(C)C1=NN(c2nc3ccc(Cl)cc3s2)C(=O)C1 [Compound 4] | 1.56 µg/mL (≈ 5.07 µM) | 0.39 µg/mL |  |  |
| CCC(=O)O [propionic acid, reference compound] |  |  | did not show any bactericidal activity |  |
